# Measured values taken from US20260083687A1, “COMPOUNDS FOR REDUCING LACTATION AND IMPROVING HEALTH” (AHV International B.V., priority 2022, published 2026).
# Tests used:
# [1] = system: Holstein Frisian dairy cows; assay: Effect of 80 ml synthetic DPD on udder pressure, stress behavior and milk leakage after abrupt dry off (Example 3); assay type: in vivo, cow
# Method: Holstein Frisian dairy cows were selected with a production of at least 12.5 kg milk/day at the last lactation. These cows were immediately treated after the last milking before abrupt dry off with 80 ml di-n-propyl disulfide (DPD) took place in the three studies of this example. Because of a limited number of available cows, a control group was available only in study 3. Treated cows were monitored for udder pressure, milk leakage and stress after the last milking every 12 hours for the first 72 hours.
# 46 Dairy cows (Holstein Frisian) from 7 farms in The Netherlands were enrolled in this field study for two months. In table 8 a description is presented with respect to some keeping conditions of and information about the cows.
# After the last milking, the cows were isolated from the other lactating cows. Only at farm 2 and 6 the cows could hear the milking machine. After isolation the cows were administered 80 ml synthetic DPD. Hereafter, the cows were monitored by the farmer for 72 hours and scored each 12 hour after abrupt dry off. The farmer scored visually for milk leakage (yes/no-scores), udder pressure and stress according to a standard scoring form (see tables 9 and 10). Cows somatic cell count numbers were extracted from the last milk recording before drying and the first milk recording after calving (5-30 Days In Lactation).
# Data analysis: the control groups with respect to milk leakage, udder stress and stress were scored and compared with the data as presented earlier in literature. For milk leakage, the data were compared assumed that 24.5% of the cows are going to leak milk after drying off (De Prado-Taranilla et al., 2020. Incidence of milk leakage after dry-off in European dairy herds, related risk factors, and its role in new intramammary infections. Journal of Dairy Science, 103(10), 9224-9237.). Udder Pressure (Bertulat et al., 2013. Measurement of fecal glucocorticoid metabolites and evaluation of udder characteristics to estimate stress after sudden dry-off in dairy cows with different milk yields. Journal of Dairy Science, 96(6), 3774-3787) and Stress (Chapinal et al., 2014. Changes in lying behavior after abrupt cessation of milking and regrouping at dry-off in free stall-housed cows: A case study. Journal of Veterinary Behavior, 9(6), 364-369;) were translated to the scoring tables as expected outcome (table 11).
# [2] = system: cows (Holstein Friesians); assay: Treatment with DPD analogs (organosulfur compounds) and milk yield (Example 8); assay type: in vivo, cow; settings: individual cows; dose per compound as listed in E284
# Method: Study design. 36 cows (Holstein Friesians) from 2 farms were used. The feed of the cows was composed of TMR, including corn and grass silage, supplemented with soya and minerals. […] The cows were milked in a milk robot. […] The cows were milked twice a day. The cows were housed in free stables. […] Placebo treatment corresponded to administration of two gel capsules containing 180 ml water.
# For this study dosages synthetic compounds (>96% purity) as indicated in table 17 were administered to cows. The objective of this study was to compare the activity of a corresponding dose of the compounds expressed in mol, based on the number of moles that is present in 80 ml di-n-propyl disulfide at 20° C. The number of moles was converted to ml or grams of the tested compounds. For this purpose, the molecular weight and specific density were used in the calculations. The compounds were formulated in the gel capsules as indicated in the previous examples.
# Before the various dosages were administered, the milk yields were monitored for at least 5 days.
# [3] = 80 ml synthetic DPD, abrupt dry off, vs control group
smiles,measurement,setting,value
"CCCSSCCC [DPD, di-n-propyl disulfide]",side effects,"[1]; 80 ml synthetic DPD after last milking, 46 cows",None of the cows showed any side effects
same,milk fever at calving,[1]; 80 ml synthetic DPD at dry off,None of the cows had milk fever at calving
same,average SCC (somatic cell count),"[1]; 80 ml synthetic DPD at dry off, first milk recording of the new lactation","58,000 cells/ml"
same,milk leakage,[1]; [3],less milk leakage
same,stress,[1]; [3],lower
same,udder pressure,[1]; [3],lower udder pressure
same,average SCC (somatic cell count),[1]; last milk recording of the last lactation (before dry off),"89,000 cells/ml"
same,Milk yield (kg) After 24 h,[2],8.5 kg
same,Milk yield (kg) After 48 h,[2],7.4 kg
same,Milk yield (kg) After 72 h,[2],15.6 kg
same,Milk yield (kg) After 96 h,[2],17.7 kg
